In the supplement of paper PMC10307832:

Assays:
Assay in all cases: relative viability (nuclei count vs DMSO), 5 days (fraction); higher = more cells survive
A-427 = tested on: A-427
In short: (§1)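 Relative viability was taken as the ratio of nuclei in treated wells to nuclei in vehicle wells. Lung cancer cell lines in 1536-well plates received compounds by pin tool one day after seeding, either one drug alone or a fixed anchor-drug dose plus five library-drug doses (not always all listed) in √10 steps. Nuclei were counted on 4× images after 5 days of treatment, and values are medians of duplicate plates.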

EKVX = tested on: EKVX
In short: as §1

NCI-H596 = tested on: NCI-H596
In short: as §1

HARA = tested on: HARA
In short: as §1

HCC-15 = tested on: HCC-15
In short: as §1

COR-L23 = tested on: COR-L23
In short: as §1

201T = tested on: 201T
In short: as §1

NCI-H1975 = tested on: NCI-H1975
In short: as §1

NCI-H358 = tested on: NCI-H358
In short: as §1

SW 900 = tested on: SW 900
In short: as §1

COR-L 105 = tested on: COR-L 105
In short: as §1

NCI-H650 = tested on: NCI-H650
In short: as §1

HCC-44 = tested on: HCC-44
In short: as §1

NCI-H1666 = tested on: NCI-H1666
In short: as §1

NCI-H1437 = tested on: NCI-H1437
In short: as §1

HCC-827 = tested on: HCC-827
In short: as §1

SK-MES-1 = tested on: SK-MES-1
In short: as §1

NCI-H23 = tested on: NCI-H23
In short: as §1

NCI-H1792 = tested on: NCI-H1792
In short: as §1

NCI-H838 = tested on: NCI-H838
In short: as §1

BEN = tested on: BEN
In short: as §1

NCI-H441 = tested on: NCI-H441
In short: as §1

LK-2 = tested on: LK-2
In short: as §1

Oc1nc(-c2ccc(C(F)(F)F)cc2)nc2c1CSCC2 [XAV939] + N=C(N)NC(=N)NCCc1ccccc1 [Phenformin] (partner 250 µM)
relative viability (A-427; first compound 0.08 µM): 0.365
relative viability (A-427; first compound 0.253 µM): 0.328
relative viability (A-427; first compound 0.8 µM): 0.314
relative viability (A-427; first compound 2.53 µM): 0.294
relative viability (EKVX; first compound 0.08 µM): 0.219
relative viability (EKVX; first compound 0.253 µM): 0.225
relative viability (EKVX; first compound 0.8 µM): 0.213
relative viability (EKVX; first compound 2.53 µM): 0.221
relative viability (NCI-H596; first compound 0.08 µM): 0.699
relative viability (NCI-H596; first compound 0.253 µM): 0.673
relative viability (NCI-H596; first compound 0.8 µM): 0.764
relative viability (NCI-H596; first compound 2.53 µM): 0.774
relative viability (HARA; first compound 0.08 µM): 0.425
relative viability (HARA; first compound 0.253 µM): 0.448
relative viability (HARA; first compound 0.8 µM): 0.452
relative viability (HARA; first compound 2.53 µM): 0.432
relative viability (HCC-15; first compound 0.08 µM): 0.634
relative viability (HCC-15; first compound 0.253 µM): 0.457
relative viability (HCC-15; first compound 0.8 µM): 0.481
relative viability (HCC-15; first compound 2.53 µM): 0.481
relative viability (COR-L23; first compound 0.08 µM): 0.438
relative viability (COR-L23; first compound 0.253 µM): 0.44
relative viability (COR-L23; first compound 0.8 µM): 0.466
relative viability (COR-L23; first compound 2.53 µM): 0.405
relative viability (201T; first compound 0.08 µM): 0.475
relative viability (201T; first compound 0.253 µM): 0.421
relative viability (201T; first compound 0.8 µM): 0.364
relative viability (201T; first compound 2.53 µM): 0.421
relative viability (NCI-H1975; first compound 0.08 µM): 0.409
relative viability (NCI-H1975; first compound 0.253 µM): 0.42
relative viability (NCI-H1975; first compound 0.8 µM): 0.382
relative viability (NCI-H1975; first compound 2.53 µM): 0.37
relative viability (NCI-H358; first compound 0.08 µM): 0.311
relative viability (NCI-H358; first compound 0.253 µM): 0.235
relative viability (NCI-H358; first compound 0.8 µM): 0.311
relative viability (NCI-H358; first compound 2.53 µM): 0.328
relative viability (SW 900; first compound 0.08 µM): 0.657
relative viability (SW 900; first compound 0.253 µM): 0.49
relative viability (SW 900; first compound 0.8 µM): 0.537
relative viability (SW 900; first compound 2.53 µM): 0.419
relative viability (COR-L 105; first compound 0.08 µM): 0.51
relative viability (COR-L 105; first compound 0.253 µM): 0.492
relative viability (COR-L 105; first compound 0.8 µM): 0.434
relative viability (COR-L 105; first compound 2.53 µM): 0.381
relative viability (NCI-H650; first compound 0.08 µM): 0.474
relative viability (NCI-H650; first compound 0.253 µM): 0.494
relative viability (NCI-H650; first compound 0.8 µM): 0.439
relative viability (NCI-H650; first compound 2.53 µM): 0.414
relative viability (HCC-44; first compound 0.08 µM): 0.239
relative viability (HCC-44; first compound 0.253 µM): 0.219
relative viability (HCC-44; first compound 0.8 µM): 0.221
relative viability (HCC-44; first compound 2.53 µM): 0.259
relative viability (NCI-H1666; first compound 0.08 µM): 0.561
relative viability (NCI-H1666; first compound 0.253 µM): 0.497
relative viability (NCI-H1666; first compound 0.8 µM): 0.555
relative viability (NCI-H1666; first compound 2.53 µM): 0.555
relative viability (NCI-H1437; first compound 0.08 µM): 0.343
relative viability (NCI-H1437; first compound 0.253 µM): 0.243
relative viability (NCI-H1437; first compound 0.8 µM): 0.287
relative viability (NCI-H1437; first compound 2.53 µM): 0.252
relative viability (HCC-827; first compound 0.08 µM): 0.364
relative viability (HCC-827; first compound 0.253 µM): 0.421
relative viability (HCC-827; first compound 0.8 µM): 0.452
relative viability (HCC-827; first compound 2.53 µM): 0.394
relative viability (SK-MES-1; first compound 0.08 µM): 0.759
relative viability (SK-MES-1; first compound 0.253 µM): 0.643
relative viability (SK-MES-1; first compound 0.8 µM): 0.613
relative viability (SK-MES-1; first compound 2.53 µM): 0.631
relative viability (NCI-H23; first compound 0.08 µM): 0.892
relative viability (NCI-H23; first compound 0.253 µM): 0.722
relative viability (NCI-H23; first compound 0.8 µM): 0.613
relative viability (NCI-H23; first compound 2.53 µM): 0.806
relative viability (NCI-H1792; first compound 0.08 µM): 0.432
relative viability (NCI-H1792; first compound 0.253 µM): 0.308
relative viability (NCI-H1792; first compound 0.8 µM): 0.303
relative viability (NCI-H1792; first compound 2.53 µM): 0.331
relative viability (NCI-H838; first compound 0.08 µM): 0.649
relative viability (NCI-H838; first compound 0.253 µM): 0.557
relative viability (NCI-H838; first compound 0.8 µM): 0.521
relative viability (NCI-H838; first compound 2.53 µM): 0.395
relative viability (BEN; first compound 0.08 µM): 0.245
relative viability (BEN; first compound 0.253 µM): 0.226
relative viability (BEN; first compound 0.8 µM): 0.264
relative viability (BEN; first compound 2.53 µM): 0.243
relative viability (NCI-H441; first compound 0.08 µM): 0.856
relative viability (NCI-H441; first compound 0.253 µM): 0.861
relative viability (NCI-H441; first compound 0.8 µM): 1
relative viability (NCI-H441; first compound 2.53 µM): 0.851
relative viability (LK-2; first compound 0.08 µM): 0.458
relative viability (LK-2; first compound 0.253 µM): 0.527
relative viability (LK-2; first compound 0.8 µM): 0.484
relative viability (LK-2; first compound 2.53 µM): 0.369
